Reference: PMC2365028, “Transepithelial Transport and Metabolism of Boronated Dipeptides Across Caco-2 and HCT-8 Cell Monolayers” (Metal-Based Drugs, 1996)
“And” between values parts separate entries of the source, which are not always exact repeats. Identical values can stand only once. Where a SMILES comes first, the peptide text is derived from it.

Key:
Caco-2 cell monolayers = test: Apical-to-basal transport and metabolism across Caco-2 cell monolayers (Transwell); details: Table 8; 4 h; 4C Static
Text: TRANSEPITHELIAL TRANSPORT AND METABOLISM OF BORONATED DIPEPTIDES ACROSS CACO-2 AND HCT-8 CELL MONOLAYERS Amy L. Elkins,John G. Eley,3, Merrill C. […] This study examined the effect of boronation on the transepithelial transport and metabolism of three glycine-phenylalanine dipeptides in Caco-2 and HCT-8 cell monolayers. […] Oral delivery of proteins and peptides as therapeutic agents is problematic due to their low bioavailability. This is mainly due to both their poor permeability across cellular barriers and to enzymatic degradation that occurs in the gut lumen, brush border, and enterocyte cytoplasm (2). […] Such as a substitution may also have the potential to alter the in vivo bioavailability of dipeptides. […] This study was undertaken to determine the effect of boronation on the transepithelial transport and metabolism of three glycine-phenylalanine dipeptides. […] Caco-2 cells are human colon adenocarcinoma cells first isolated from a primary colonic tumor (4). The cell line undergoes spontaneous enterortic differentiation in culture after reaching cotfflucnce, and morphologically resembles small intestinal epitheliun after three xveeks in culture (5). These morphological characteristics include the development of a brush border region expressing microvilli, occluding junctions, dome formations, and the formation of tight junctions leading to cell polarity. […] The cell line expresses a dipeptide carrier transport system in both the apical and basal membranes (9-10). […] HCT-8 cells are human adenocarcinoma cells from the ileocecal region; as such, these cells may give a truer reflection of gut absorption compared to Caco-2 cells which are derived from the colonic region. The cells produce a polarized differentiated monolayer consisting of enterocyte-like columnar cells that are interconnected by mature tightjunctions and desmosomes and exposed microvilla (11). The structural and functional integrity of the tight junctions of cells grown on polyester filter cups (Falcon, BD) and membrane filter inserts (Transwell(R), Costar) have been confirmed by transmission electron microscopy, transepithelial electrical resistance measurements, and transport of impermeant markers such as mannitol and polyethylene glycol (11, 12). […] Compound//was donated by Boron Biologicals, Inc., Raleigh, NC. Compound 111 was synthesized as follows: L-phenylalanine methyl ester hydrochloride (2.09 g, 9.7 mmol) and dimethylglycine (1 g, 9.7 retool) xvere suspended in 30 ml dry tetrahydrofuran with 10 mmol of triethylamine, dicyclohexyl-carbodiinfide and hydrox3'benzotriazole. The reaction was stirred at room temperature for 48 hours under nitrogen and the solvent was removed under reduced pressure. The product was purified on silica gel, two void volumes of hexane, two void volumes hexane/ethanol (8'1), and then hexane/ethanol (5:1). […] For the transport studies, cells were diluted with growth medium to give a total of […] cells/cm in 1.5 mls. The 1.5 ntis was placed in the apical compartment of a Transwcll(R) (Costar). The Transxvell(R) system is a 6-well plate with each well having an apical compartment capacity of 1.5 ntis, a basal compartment capacity of 2.5 ntis, and a 4.71 cm polycarbonate microporous (0.45 gin) membrane separating the two compartments. Cell monolayers in the Transwell(R) were allowed to grow for 21 days while the medium was replaced every 3 days. The cells were grown in Dulbecco's Modified Eagle Medium (D-MEM) containing L-glutamine and sodium pyruvate at 37C under 5% CO-. and saturated humidity. Additives to the medium included 10% heat- inactivated fetal bovine serum, 10 mM nonessential amino acids, 100 units of penicillin and […] of streptomycin per ml of medium. 278 A.L. Elkins, J.G. Eley, M.C.

[1] = perfusion into the jejunum, two studies; cited from earlier work
[2] = system: brush border aminopeptidases; details: rat brush border aminopeptidases; cited from earlier work

SMILES | Apparent permeability coefficient Pe + SD (Caco-2 cell monolayers) | disappearance rate [1] | substrate specificity [2]
COC(=O)[C@H](Cc1ccccc1)NC(=O)CN(C)C [Compound III, N,N-dimethylglycyl-L-phenylalanine methyl ester] | 8 ×10⁻⁶ cm/s | – | –
NCC(=O)N[C@@H](Cc1ccccc1)C(=O)O [glycine-phenylalanine] (H-Gly-Phe-OH) | – | 68% and 79% | 85%
